Experimental data reported in paper PMC7645381, “Development and application of a high-throughput screening assay for identification of small molecule inhibitors of the P. falciparum reticulocyte binding-like homologue 5 protein” (International Journal for Parasitology: Drugs and Drug …, 2020).
Structures can show the parent of a compound that is named as a salt.

Legend:
Assay in all cases: biochemical
[1] = molecular target: T1, P. falciparum Rh5 (Rh5 – basigin interaction) (Plasmodium falciparum, UniProt Q8IFM5); design: AlphaScreen of Rh5 - His-tagged basigin interaction with anti-Rh5 mAb beads; inhibition of luminescence signal; settings: primary pilot screen, single point; for % Inhibition Pilot: 20 µM, inhibitor
T1 sequence (Q8IFM5 24-526): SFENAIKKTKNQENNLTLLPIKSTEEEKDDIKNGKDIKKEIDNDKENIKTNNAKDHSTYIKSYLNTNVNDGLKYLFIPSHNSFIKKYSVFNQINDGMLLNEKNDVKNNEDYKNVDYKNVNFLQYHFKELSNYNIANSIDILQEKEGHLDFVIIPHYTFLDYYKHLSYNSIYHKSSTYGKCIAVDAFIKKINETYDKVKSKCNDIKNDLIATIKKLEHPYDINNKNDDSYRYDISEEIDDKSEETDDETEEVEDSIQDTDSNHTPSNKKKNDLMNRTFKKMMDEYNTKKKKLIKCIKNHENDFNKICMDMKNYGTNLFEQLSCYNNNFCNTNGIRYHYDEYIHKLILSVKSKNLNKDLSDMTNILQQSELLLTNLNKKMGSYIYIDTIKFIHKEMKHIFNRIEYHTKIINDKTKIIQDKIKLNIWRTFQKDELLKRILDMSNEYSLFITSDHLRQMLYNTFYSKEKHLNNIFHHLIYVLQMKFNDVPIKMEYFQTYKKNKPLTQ
Protocol: Using the Combi-multidrop, 5 μL of Rh5 stock solution (200 nM prepared in assay buffer) was added to columns 1–24 of the 384-well assay plate (Greiner 384-well white, low binding plate, #784904, Bioone). The PerkinElmer Janus automated dispensing system was then employed to transfer, via the pin-tool, 2 × 100 nL of the compound stock DMSO solution from the compound master plate to the assay plate. The plate was sealed and incubated for 30 min at room temperature. Using a Combi-multidrop, 5 μL of hexa-histidine tagged basigin stock solution (80 nM prepared in assay buffer) was then added to columns 1–23 and 5 μL assay buffer to column 24 of the 384-well assay plate. The plate was sealed again and incubated for 30 min at room temperature. A solution of AlphaScreen donor and acceptor beads (20 μg/mL prepared in assay buffer) plus anti-Rh5 mAb solution (2 μg/mL prepared in assay buffer) was prepared in assay buffer under subdued lighting. Using the Combi-multidrop, 10 μL of this solution was added to every well of the assay plate under subdued lighting. The plate was sealed with foil (plate max) and incubated at room temperature for 1 h. The assay plate was then analysed on the PerkinElmer Envision 2103 Multilabel Plate Reader (Ex 680, Em 520–620 nm). The optimised Rh5 AlphaScreen assay was then validated for HT screening purposes by conducting a pilot screen using known drug library (from Prestwick, Tocris and LOPAC) and the MMV Malaria Box, comprising 3708 and 400 compounds (Fig. 1), respectively. Historically, PPIs are notoriously difficult to target with small molecules. To enhance the likelihood of identifying an inhibitor of the Rh5 - basigin interaction the primary screen was conducted at a compound concentration of 20 μM. A 20 μM screening concentration is considered high, when compared to the commonly used primary screen concentrations of approximately 1–10 μM. To follow-up on hit compounds from the pilot validation screen, we next wanted to confirm the activity of the primary hits. To do this, a two-phase hit confirmation and counterscreen process was undertaken (Fig. 1). In the first phase, the 231 primary hits from both libraries were evaluated in the Rh5 AlphaScreen assay and counterscreen assay. Both assays were undertaken at 10 μM in duplicate. The counterscreen assay was conducted using AlphaScreen TruHits. […] The 45 secondary hits can be viewed in the top left quadrant of Fig. S8. Of the 45 hits, 13 compounds originated from the Malaria Box and 32 compounds from the known drug library.

[2] = molecular target: T1, P. falciparum Rh5 (Rh5 – basigin interaction); design: AlphaScreen of Rh5 - His-tagged basigin interaction with anti-Rh5 mAb beads; inhibition of luminescence signal; settings: confirmation screen, duplicate; for % Inhibition Confirmation: 10 µM, inhibitor
Protocol: Using the Combi-multidrop, 5 μL of Rh5 stock solution (200 nM prepared in assay buffer) was added to columns 1–24 of the 384-well assay plate (Greiner 384-well white, low binding plate, #784904, Bioone). The PerkinElmer Janus automated dispensing system was then employed to transfer, via the pin-tool, 2 × 100 nL of the compound stock DMSO solution from the compound master plate to the assay plate. The plate was sealed and incubated for 30 min at room temperature. Using a Combi-multidrop, 5 μL of hexa-histidine tagged basigin stock solution (80 nM prepared in assay buffer) was then added to columns 1–23 and 5 μL assay buffer to column 24 of the 384-well assay plate. The plate was sealed again and incubated for 30 min at room temperature. A solution of AlphaScreen donor and acceptor beads (20 μg/mL prepared in assay buffer) plus anti-Rh5 mAb solution (2 μg/mL prepared in assay buffer) was prepared in assay buffer under subdued lighting. Using the Combi-multidrop, 10 μL of this solution was added to every well of the assay plate under subdued lighting. The plate was sealed with foil (plate max) and incubated at room temperature for 1 h. The assay plate was then analysed on the PerkinElmer Envision 2103 Multilabel Plate Reader (Ex 680, Em 520–620 nm). […] Historically, PPIs are notoriously difficult to target with small molecules. To enhance the likelihood of identifying an inhibitor of the Rh5 - basigin interaction the primary screen was conducted at a compound concentration of 20 μM. A 20 μM screening concentration is considered high, when compared to the commonly used primary screen concentrations of approximately 1–10 μM. […] To do this, a two-phase hit confirmation and counterscreen process was undertaken (Fig. 1). […] Both assays were undertaken at 10 μM in duplicate. The counterscreen assay was conducted using AlphaScreen TruHits.

[3] = molecular target: T1, P. falciparum Rh5 (Rh5 – basigin interaction); assay type: binding; settings: for Rh5 inhibitory activity in the AlphaScreen assay: highest concentration tested 50 μM

SMILES | inhibition at 20 µM ([1]; Batch Reference=01) [%] | inhibition at 10 µM ([2]; Batch Reference=01) [%] | further results
NC(Cc1cc(O)c(O)cc1O)C(=O)O (racemic) [WEHI-1215200, 6-Hydroxy-DL-DOPA] | 69.7 | 80.7 | –
CC(=O)N1CCN(c2ccc(OC[C@@H]3CO[C@@](Cn4ccnc4)(c4ccc(Cl)cc4Cl)O3)cc2)CC1 (racemic) [WEHI-1215227, Ketoconazole] | – | – | inhibition at 20 µM ([1]; Batch Reference=02): 58.3%
CCOC(=O)c1cc(=O)c2cccc(NC(=O)c3ccc(OCc4ccccc4)cc3)c2o1 [Compound 11, Ethyl 8-(4-(benzyloxy)benzamido)-4-oxo-4H-chromene-2-carboxylate] | – | – | IC50 [3]: > 50 µM
CCOC(=O)c1cc(=O)c2cccc(NC(=O)c3ccc(OCCc4ccccc4)cc3)c2o1 [Compound 12, Ethyl 4-oxo-8-(4-phenethoxybenzamido)-4H-chromene-2-carboxylate] | – | – | IC50 [3]: > 50 µM
CCOC(=O)c1cc(=O)c2cccc(NC(=O)c3ccc(OCCCCc4ccccc4)cc3)c2o1 [Compound 14, Ethyl 4-oxo-8-(4-(4-phenylbutoxy)benzamido)-4H-chromene-2-carboxylate] | – | – | IC50 [3]: > 50 µM
O=C(Nc1cccc2c(=O)cc(C(=O)O)oc12)c1ccc(OCc2ccccc2)cc1 [Compound 15, 8-(4-(Benzyloxy)benzamido)-4-oxo-4H-chromene-2-carboxylic acid] | – | – | IC50 [3]: > 50 µM; Rh5 inhibitory activity in the AlphaScreen assay [3]: No activity
CCOC(=O)c1cc(=O)c2cccc(NC(=O)c3ccc(OC)cc3)c2o1 [Compound 20, Ethyl 8-(4-methoxybenzamido)-4-oxo-4H-chromene-2-carboxylate] | – | – | IC50 [3]: > 50 µM
CN(C)C(=O)CCSC(SCCC(=O)O)c1cccc(/C=C/c2ccc3ccc(Cl)cc3n2)c1 (stereo not shown) [MK 571, reference compound] | – | – | Rh5 inhibitory activity in the AlphaScreen assay [3]: did not show Rh5 inhibitory activity
Br.CN1CCc2cc(O)cc3c2[C@H]1Cc1ccc(O)c(O)c1-3 [R(-)-2,10,11-trihydroxyaporphine, reference compound] | – | – | Rh5 inhibitory activity in the AlphaScreen assay [3]: not active
CN1CCc2cccc3c2[C@H]1Cc1ccc(O)c(O)c1-3 [R(-)-apomorphine, reference compound] | – | – | Rh5 inhibitory activity in the AlphaScreen assay [3]: not active
CCCN1CCc2cccc3c2[C@H]1Cc1ccc(O)c(O)c1-3 [R(-)-propylnorapomorphine, reference compound] | – | – | Rh5 inhibitory activity in the AlphaScreen assay [3]: not active
COC(=O)C1=C(C)NC(C)=C(C(=O)OC)C1c1ccccc1[N+](=O)[O-] [WEHI-0104145, Nifedipine] | – | – | inhibition at 20 µM ([1]; Batch Reference=02): 55.3%; inhibition at 20 µM ([1]; Batch Reference=03): 57.3%; inhibition at 10 µM ([2]; Batch Reference=02): 81.1%; inhibition at 10 µM ([2]; Batch Reference=03): 75.7%
CN1CCc2cccc3c2[C@H]1Cc1ccc(O)c(O)c1-3 [WEHI-1214737, Apomorphine hydrochloride hemihydrate] | – | – | % Inhibition Pilot ([1]; Batch Reference=01): 62.755%; % Inhibition Confirmation ([2]; Batch Reference=01): 72.2885%
CCCN1CCc2cccc3c2[C@H]1Cc1ccc(O)c(O)c1-3 [WEHI-1215034, R(-)-Propylnorapomorphine hydrochloride] | 83 | 84.9 | –
CN1CCc2cc(O)cc3c2[C@H]1Cc1ccc(O)c(O)c1-3 [WEHI-1215043, R(-)-2,10,11-Trihydroxyaporphine hybrobromide] | 62.6 | 84.7 | –
CCCN1CCc2cc(O)cc3c2[C@H]1Cc1ccc(O)c(O)c1-3 [WEHI-1215052, R(-)-2,10,11-Trihydroxy-N-propylnoraporphine hydrobromide] | 69.8 | 87.2 | –
CC#C[C@]1(O)CC[C@H]2[C@@H]3CCC4=CC(=O)CCC4=C3[C@@H](c3ccc(N(C)C)cc3)C[C@@]21C [WEHI-1215337, Mifepristone] | 75.3 | 91.7 | inhibition at 20 µM ([1]; Batch Reference=03): 76.6%; inhibition at 10 µM ([2]; Batch Reference=03): 96.5%
C[n+]1cc2c3c(ccc2c2ccc4cc5c(cc4c21)OCO5)OCO3 [WEHI-1215580, Sanguinarine chloride] | 70.3 | 99 | –
O=C(O)Cc1cccc(OCCCN(Cc2cccc(C(F)(F)F)c2Cl)CC(c2ccccc2)c2ccccc2)c1 [WEHI-1216231, GW 3965 hydrochloride] | 57.8 | 51.1 | –
CN1CCc2cccc3c2[C@H]1Cc1ccc(O)c(O)c1-3 [WEHI-1216442, (R)-(-)-Apomorphine hydrochloride] | 70.8 | 76.5 | –
O=C1C=CC(=O)c2c1ccc1c2ccc2ccccc21 [WEHI-1216729, Chrysene-1,4-quinone] | 56.6 | 71 | –
CC[N+](C)(CC)CCC[n+]1c(-c2ccccc2)c2cc(N)ccc2c2ccc(N)cc21 [WEHI-1216760, Propidium iodide] | 55.7 | 77 | –
NCCNCCNCCNCCN [WEHI-1217021, Tetraethylenepentamine pentahydrochloride] | 96.2 | 96.9 | –
CN1CCc2cccc3c2[C@H]1Cc1ccc(O)c(O)c1-3 [WEHI-1217165, R(-) Apomorphine hydrochloride hemihydrate] | – | – | % Inhibition Pilot ([1]; Batch Reference=01): 61.89%; % Inhibition Confirmation ([2]; Batch Reference=01): 62.575%
COCCCOc1ccnc(C[S+]([O-])c2nc3ccccc3[nH]2)c1C (stereo not shown) [rabeprazole, reference compound] | – | – | Rh5 inhibitory activity in the AlphaScreen assay [3]: not active
COCCCOc1ccnc(C[S+]([O-])c2nc3ccccc3[nH]2)c1C (stereo not shown) [rabeprazole] | 59.6 | 68 | –
